These results are taken from PubChem BioAssay (NCI).

Test systems include UO-31 renal; MDA-N; HOP-92 NSCLC; EKVX NSCLC; UACC-257 melanoma; HCT-116 colon; MCF7 breast; RXF 393 renal; SN12C renal; ACHN renal.
Experiment in all cases: NCI-60 cell line screen, 48 h

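Exposure lasted 48 hours, with cells grown in 96-well plates and compounds tested at five concentrations. TGI: concentration producing complete growth inhibition.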

Turning to `CCOC(=O)C1=C(C)C2C=C(c3cccs3)CC(c3ccc(Cl)cc3)=C2OC1=O` (stereo not given), the TGI is over 100 µM in the assay on UO-31 renal; over 100 µM with MDA-N; over 100 µM with HOP-92 NSCLC; over 100 µM in the assay with EKVX NSCLC; over 100 µM in the assay on UACC-257 melanoma; 69.2 µM with HCT-116 colon. Also, the TGI in the assay on MCF7 breast, with RXF 393 renal, in the assay on SN12C renal and in the assay with ACHN renal was over 100 µM each time.
In the case of `OCCc1ccsc1-c1sc(-c2cc(CCO)c(-c3sccc3CCO)s2)cc1CCO`, the TGI in the assay with UO-31 renal was determined as 31.4 µM; in the assay on MDA-N it was 63.5 µM; with HOP-92 NSCLC, 32.6 µM; with EKVX NSCLC, 32.4 µM; in the assay on UACC-257 melanoma, 34.4 µM; in the assay on HCT-116 colon, 43.8 µM. The TGI came out at 31 µM in the assay on MCF7 breast, 9.05 µM in the assay on RXF 393 renal, 63.1 µM in the assay with SN12C renal and 35.9 µM in the assay with ACHN renal.
With `CCOC(=O)c1nc2c(nc1C(=O)OCC)C(=O)c1ccccc1C2=O`, the TGI stood at 1.18 µM in the assay with UO-31 renal; 0.796 µM in the assay on MDA-N; 33.6 µM in the assay on HOP-92 NSCLC; 3.5 µM with EKVX NSCLC; 1.28 µM with UACC-257 melanoma; 4.25 µM with HCT-116 colon. The TGI was found to be 1.17 µM in the assay on MCF7 breast, 2.81 µM in the assay on RXF 393 renal, 0.4 µM in the assay with SN12C renal and 2.02 µM with ACHN renal.
As for `CCCCC(C(=O)NCCNC(=O)CCC(=O)N(C)O)C(=O)NCCNC(=O)CCC(=O)N(C)O`, the TGI in the assay with UO-31 renal, in the assay on MDA-N, in the assay on HOP-92 NSCLC, in the assay with EKVX NSCLC, in the assay on UACC-257 melanoma and with HCT-116 colon was over 100 µM in each case. In addition, the TGI with MCF7 breast, with RXF 393 renal, in the assay on SN12C renal and in the assay on ACHN renal was over 100 µM in each case.
On to `C=CCSc1nnc2cc(CN3CCCC3)c(-c3ccc(Cl)cc3)nn12`, for which the TGI in the assay with UO-31 renal came to 30.4 µM; in the assay on MDA-N, 34.2 µM; in the assay with HOP-92 NSCLC, 34.3 µM; in the assay with EKVX NSCLC it was 43.8 µM; in the assay with UACC-257 melanoma, 32.3 µM; in the assay on HCT-116 colon, 28.5 µM. Besides, the TGI was 33.7 µM in the assay on MCF7 breast, 31.5 µM with RXF 393 renal, 32.1 µM in the assay with SN12C renal and 38.3 µM in the assay with ACHN renal.
Consider `Cc1cn(C2CC(O)C(CO)O2)c(=O)[nH]c1=O` (stereo not given), for which the TGI in the assay with UO-31 renal is over 5000 µM; with MDA-N it was over 5000 µM; with HOP-92 NSCLC, over 4830 µM; with EKVX NSCLC, 4950 µM; with UACC-257 melanoma, over 5000 µM; with HCT-116 colon, over 4240 µM. Further, the TGI was over 4300 µM in the assay on MCF7 breast, over 5000 µM in the assay with RXF 393 renal, over 4240 µM in the assay with SN12C renal and over 5000 µM with ACHN renal.
With `COc1cccc2c1OC1(C=C2)Oc2ccccc2C(=O)N1C` (stereo not given), the TGI is over 100 µM in the assay on UO-31 renal; 44.9 µM in the assay on MDA-N; 98.2 µM in the assay on HOP-92 NSCLC; over 100 µM with EKVX NSCLC; over 100 µM in the assay on UACC-257 melanoma; over 100 µM in the assay on HCT-116 colon. The TGI with MCF7 breast, in the assay on RXF 393 renal, in the assay on SN12C renal and in the assay on ACHN renal was over 100 µM throughout.
For `O=[N+]([O-])c1ccc(Oc2c(Cl)cc(S(=O)(=O)/N=C(\NO)Nc3ccc(Cl)cc3)cc2Cl)cc1`, the TGI turned out to be 19.2 µM in the assay with UO-31 renal; 24.8 µM in the assay on MDA-N; 11.1 µM in the assay with HOP-92 NSCLC; 24.9 µM in the assay with EKVX NSCLC; 22.6 µM in the assay with UACC-257 melanoma; 22.6 µM in the assay with HCT-116 colon. Further, the TGI in the assay with MCF7 breast was found to be 24.1 µM; in the assay on RXF 393 renal, 29.9 µM; with SN12C renal it was 25.8 µM; with ACHN renal it was 23.8 µM.
For the compound `O=C(CC(C(=O)c1ccsc1)c1ccc2c(c1)OCO2)c1ccccc1` (stereo not given), the TGI in the assay on UO-31 renal, with MDA-N, in the assay on HOP-92 NSCLC, in the assay with EKVX NSCLC, in the assay with UACC-257 melanoma and with HCT-116 colon was over 100 µM each time. Further, the TGI in the assay on MCF7 breast, in the assay on RXF 393 renal, in the assay with SN12C renal and in the assay with ACHN renal was over 100 µM in each case.
Turning to `CCN(CCCN(CC)C(=O)Nc1c(C)cccc1C)C(=O)Nc1c(C)cccc1C`, the TGI in the assay with UO-31 renal, in the assay on MDA-N, with HOP-92 NSCLC, with EKVX NSCLC, in the assay on UACC-257 melanoma and with HCT-116 colon was over 100 µM each time. In addition, the TGI in the assay with MCF7 breast, in the assay on RXF 393 renal, in the assay with SN12C renal and with ACHN renal was over 100 µM throughout.
Turning to `CSC(=S)N/N=C(\C)c1ccc(S(=O)(=O)N(C)c2ccccc2)cc1`, the TGI with UO-31 renal, in the assay with MDA-N, in the assay with HOP-92 NSCLC, with EKVX NSCLC, in the assay on UACC-257 melanoma and with HCT-116 colon was over 100 µM throughout. Besides, the TGI in the assay with MCF7 breast, in the assay with RXF 393 renal, with SN12C renal and in the assay on ACHN renal was over 100 µM in each case.
With `O=C(O)c1ccccc1CC1Cc2ccccc2C1=O` (stereo not given), the TGI in the assay on UO-31 renal, in the assay on MDA-N, in the assay with HOP-92 NSCLC, with EKVX NSCLC, in the assay with UACC-257 melanoma and in the assay with HCT-116 colon was over 100 µM each time. Moreover, the TGI with MCF7 breast, in the assay on RXF 393 renal, in the assay with SN12C renal and in the assay on ACHN renal was over 100 µM each time.
`O=C(O)CCC(=O)OC1N=C(c2ccccc2Cl)c2cc([N+](=O)[O-])ccc2NC1=O` (stereo not given): the TGI is over 100 µM in the assay with UO-31 renal; over 100 µM with MDA-N; over 100 µM in the assay on HOP-92 NSCLC; over 100 µM in the assay with EKVX NSCLC; over 100 µM with UACC-257 melanoma; 65.6 µM in the assay with HCT-116 colon. The TGI in the assay with MCF7 breast, in the assay on RXF 393 renal, in the assay on SN12C renal and in the assay on ACHN renal was over 100 µM throughout.
Take `Cc1ccc(S(=O)(=O)N/N=C/C2(c3ccccc3)c3ccccc3-c3ccccc32)cc1`: the TGI in the assay with UO-31 renal turned out to be 18.6 µM; with MDA-N, 14.9 µM; with HOP-92 NSCLC it was 25.5 µM; with EKVX NSCLC, 30.2 µM; in the assay on UACC-257 melanoma it was 31.4 µM; with HCT-116 colon, 20.3 µM. Further, the TGI turned out to be 29.6 µM in the assay on MCF7 breast, 27.3 µM with RXF 393 renal, 23.9 µM in the assay on SN12C renal and 88.3 µM in the assay on ACHN renal.
Consider `N#CC12C(=O)N=C(N)C1(C#N)C(c1ccco1)NC1=C2CCCC1` (stereo not given), for which the TGI in the assay on UO-31 renal, with MDA-N, in the assay on HOP-92 NSCLC, in the assay with EKVX NSCLC, in the assay on UACC-257 melanoma and in the assay on HCT-116 colon was over 100 µM each time. The TGI in the assay on MCF7 breast, with RXF 393 renal, in the assay with SN12C renal and in the assay with ACHN renal was over 100 µM each time.
With `NC1=NCC(CN2CCOCC2)O1` (stereo not given), the TGI in the assay on UO-31 renal, with MDA-N, with HOP-92 NSCLC, in the assay on EKVX NSCLC, in the assay with UACC-257 melanoma and in the assay with HCT-116 colon was over 100 µM throughout. Moreover, the TGI in the assay on MCF7 breast, in the assay with RXF 393 renal, in the assay with SN12C renal and in the assay with ACHN renal was over 100 µM throughout.
Consider `CC(=N/N=C/c1ccccn1)/C(C)=N/N=C(C)/C(C)=N/N=C(C)/C(C)=N/N=C(C)/C(C)=N\N=C\c1ccccn1`, for which the TGI in the assay with UO-31 renal, with MDA-N, in the assay with HOP-92 NSCLC, in the assay on EKVX NSCLC, in the assay on UACC-257 melanoma and in the assay on HCT-116 colon was over 100 µM each time. The TGI in the assay with MCF7 breast, with RXF 393 renal, with SN12C renal and in the assay with ACHN renal was over 100 µM each time.
As to `CC1=NN(c2cccc(Cl)c2)C2(C1=C/C=C/c1ccccc1)C(Cl)C(=O)N2c1nc2ccccc2s1` (stereo not given), the TGI in the assay with UO-31 renal was over 61.2 µM; in the assay with MDA-N it was over 100 µM; in the assay on HOP-92 NSCLC, over 53.2 µM; in the assay with EKVX NSCLC, over 100 µM; in the assay with UACC-257 melanoma it was over 100 µM; in the assay with HCT-116 colon, over 86.1 µM. Further, the TGI in the assay on MCF7 breast is over 100 µM; in the assay on RXF 393 renal, over 49 µM; in the assay with SN12C renal, over 100 µM; with ACHN renal, over 42.3 µM.
For the compound `NS(=O)(=O)c1cc(Cl)c(NC(=S)NC(=O)Nc2ccc(Cl)c(Cl)c2)c(Cl)c1`, the TGI in the assay with UO-31 renal, with MDA-N, with HOP-92 NSCLC, in the assay on EKVX NSCLC, in the assay with UACC-257 melanoma and in the assay with HCT-116 colon was over 100 µM each time. The TGI was 53.8 µM in the assay with MCF7 breast, over 100 µM in the assay on RXF 393 renal, over 100 µM in the assay with SN12C renal and over 100 µM with ACHN renal.
Take `COc1cccc2c(=O)oc(-c3ccc(C(C)(C)C)cc3)nc12`: the TGI in the assay with UO-31 renal, in the assay with MDA-N, in the assay with HOP-92 NSCLC, in the assay on EKVX NSCLC, in the assay with UACC-257 melanoma and with HCT-116 colon was over 100 µM throughout. Also, the TGI in the assay with MCF7 breast, with RXF 393 renal, in the assay on SN12C renal and in the assay with ACHN renal was over 100 µM throughout.
For the compound `CC1OC(OC2C(OC(=O)[C@]34CCC(C)(C)C[C@H]3C3=CC[C@@H]5[C@@]6(C)CC[C@H](OC7OC(C(=O)O)C(O)C(O)C7O)C(C)(C)[C@@H]6CC[C@@]5(C)[C@]3(C)C[C@H]4O)OCC(O)C2O)C(O)C(OC2OCC(O)(CO)C2O)C1OC1OCC(O)C(O)C1O` (stereo not given in full), the TGI in the assay on UO-31 renal is 8.42 µM; in the assay with MDA-N, 16 µM; with HOP-92 NSCLC, 26.7 µM; with EKVX NSCLC, 16.2 µM; in the assay with UACC-257 melanoma, 26.6 µM; in the assay with HCT-116 colon, 19.8 µM. Further, the TGI in the assay with MCF7 breast is 18.3 µM; in the assay with RXF 393 renal, 31.5 µM; in the assay with SN12C renal, 11 µM; with ACHN renal it was 17.4 µM.
